{"source": "ChEMBL document CHEMBL1201862", "about": "“PubChem BioAssay data set” (2004)", "key": {"[1]": {"biological_target": "T1, Calpain-2 catalytic subunit (Sus scrofa, UniProt P43367)", "T1 sequence (P43367 whole entry)": "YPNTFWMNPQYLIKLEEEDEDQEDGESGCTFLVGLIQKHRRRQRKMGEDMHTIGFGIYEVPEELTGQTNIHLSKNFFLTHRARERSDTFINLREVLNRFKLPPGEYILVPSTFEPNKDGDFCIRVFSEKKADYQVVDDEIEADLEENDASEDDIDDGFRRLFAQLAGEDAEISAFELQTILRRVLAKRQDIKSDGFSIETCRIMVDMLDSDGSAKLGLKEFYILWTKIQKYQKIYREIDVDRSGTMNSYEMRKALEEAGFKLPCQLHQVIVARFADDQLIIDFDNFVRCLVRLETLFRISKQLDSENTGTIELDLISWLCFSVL", "assay": "m-calpain protease blockers, concentration series – biochemical, fluorogenic peptide substrate, dose response (AID 1420)", "assay_type": "functional"}, "[2]": {"biological_target": "T2, Rac GTPase-activating protein 1 (Homo sapiens, UniProt Q9H0H5)", "T2 sequence (Q9H0H5 whole entry)": "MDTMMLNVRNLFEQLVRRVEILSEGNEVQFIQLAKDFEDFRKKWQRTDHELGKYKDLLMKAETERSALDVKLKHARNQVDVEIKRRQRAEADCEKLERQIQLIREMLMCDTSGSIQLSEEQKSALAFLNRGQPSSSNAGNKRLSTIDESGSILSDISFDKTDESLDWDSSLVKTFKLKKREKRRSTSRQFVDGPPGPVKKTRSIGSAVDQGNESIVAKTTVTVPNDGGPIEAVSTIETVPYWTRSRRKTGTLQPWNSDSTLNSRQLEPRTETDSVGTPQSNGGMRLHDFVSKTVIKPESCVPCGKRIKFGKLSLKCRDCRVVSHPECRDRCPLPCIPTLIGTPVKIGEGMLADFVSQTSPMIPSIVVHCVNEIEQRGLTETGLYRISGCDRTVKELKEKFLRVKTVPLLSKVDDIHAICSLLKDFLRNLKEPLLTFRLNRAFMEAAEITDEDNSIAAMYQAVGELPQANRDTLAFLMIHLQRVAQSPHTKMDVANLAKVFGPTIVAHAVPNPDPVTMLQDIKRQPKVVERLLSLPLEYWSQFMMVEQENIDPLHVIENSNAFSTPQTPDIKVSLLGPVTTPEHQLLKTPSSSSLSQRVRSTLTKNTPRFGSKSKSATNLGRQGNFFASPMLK", "assay": "blockers of MgcRacGAP-driven Rac1 GTP hydrolysis – biochemical, ADP Hunter fluorescence, primary and confirmatory, confirmation (AID 624330)", "assay_type": "functional"}, "[3]": {"biological_target": "Heat shock protein HSP 90-alpha (Homo sapiens, UniProt P07900)", "assay_type": "functional, organism-based"}, "[4]": {"assay": "Trypanosoma cruzi growth suppression in host cells – NIH3T3 host cells, beta-gal luminescence, confirmation (AID 2044);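 also: intracellular parasites grown in NIH/3T3 mouse fibroblasts as host cells; luminescent beta-galactosidase reporter signal from transgenic T. cruzi replicating inside host cells; inhibitors lower the luminescence signal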", "assay_type": "functional, cell-based"}, "[5]": {"assay": "NIH3T3 cell viability loss – ATP luminescence, mouse fibroblasts, counter-screen, dose response (AID 2010);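 also: cells exposed to compound for about 90 hours before reading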", "assay_type": "functional, cell-based"}, "[6]": {"test_system": "INS1", "assay": "INS-1E survival protection against cytokine death – cell-based, luminescence, retest, dose response (AID 449756);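 also: cell death triggered by IL-1 beta plus TNF-alpha plus IFN-gamma mixture; protective hits raise ATP signal compared with cytokine alone wells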", "assay_type": "functional", "conditions": "Rattus norvegicus"}, "[7]": {"biological_target": "Large T antigen (Simian virus 40, UniProt P03070)", "sequence (P03070 whole entry)": "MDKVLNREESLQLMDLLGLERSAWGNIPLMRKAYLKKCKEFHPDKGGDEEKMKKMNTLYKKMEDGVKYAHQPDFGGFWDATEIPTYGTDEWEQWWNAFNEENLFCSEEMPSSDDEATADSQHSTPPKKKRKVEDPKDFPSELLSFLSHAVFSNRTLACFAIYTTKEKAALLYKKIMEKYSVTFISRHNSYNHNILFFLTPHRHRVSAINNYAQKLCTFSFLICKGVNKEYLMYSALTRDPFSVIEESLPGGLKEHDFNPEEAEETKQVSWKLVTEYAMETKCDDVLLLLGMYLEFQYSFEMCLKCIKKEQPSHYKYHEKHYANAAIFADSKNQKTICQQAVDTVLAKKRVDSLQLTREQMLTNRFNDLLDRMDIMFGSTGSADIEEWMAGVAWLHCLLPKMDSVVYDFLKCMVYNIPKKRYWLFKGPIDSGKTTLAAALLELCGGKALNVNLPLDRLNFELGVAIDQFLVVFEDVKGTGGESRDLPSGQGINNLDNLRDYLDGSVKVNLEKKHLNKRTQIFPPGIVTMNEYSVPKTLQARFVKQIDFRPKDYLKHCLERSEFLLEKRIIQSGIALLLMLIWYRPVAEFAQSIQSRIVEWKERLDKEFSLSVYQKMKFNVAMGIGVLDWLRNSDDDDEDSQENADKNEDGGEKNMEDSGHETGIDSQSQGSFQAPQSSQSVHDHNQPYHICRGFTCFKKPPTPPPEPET", "assay_type": "functional, Betapolyomavirus macacae"}, "[8]": {"assay": "luciferase reporter signal suppression in cells – H4 neuroglioma cells, luminescence, dose response (AID 1990)", "assay_type": "functional, cell-based"}, "[9]": {"test_system": "Streptococcus sp. 'group A'", "assay": "Streptococcus pyogenes SK(-)GAS viability under kanamycin – luminescence, BacTiterGlo, confirmation, counter-screen for streptokinase expression inhibitor project, dose response (AID 1900)", "assay_type": "functional, organism-based"}, "[10]": {"assay": "Luminescence Cell-Based Dose Response HTS to Identify Inhibitors of 5'UTR Stem-Loop Driven Prion Protein mRNA Translation in H4 Neuroglioblastoma Cells. [Related pubchem assays: 1827 (Project Summary), 1813 (Primary HTS)]", "assay_type": "functional"}, "[11]": {"assay": "alpha-synuclein stem-loop luciferase translation blockers – H4 neuroglioma cells, luminescence, confirmation (AID 1988)", "assay_type": "functional, cell-based"}, "[12]": {"biological_target": "T3, Streptokinase A (Streptococcus pyogenes serotype M1, UniProt P10520)", "T3 sequence (P10520 whole entry)": "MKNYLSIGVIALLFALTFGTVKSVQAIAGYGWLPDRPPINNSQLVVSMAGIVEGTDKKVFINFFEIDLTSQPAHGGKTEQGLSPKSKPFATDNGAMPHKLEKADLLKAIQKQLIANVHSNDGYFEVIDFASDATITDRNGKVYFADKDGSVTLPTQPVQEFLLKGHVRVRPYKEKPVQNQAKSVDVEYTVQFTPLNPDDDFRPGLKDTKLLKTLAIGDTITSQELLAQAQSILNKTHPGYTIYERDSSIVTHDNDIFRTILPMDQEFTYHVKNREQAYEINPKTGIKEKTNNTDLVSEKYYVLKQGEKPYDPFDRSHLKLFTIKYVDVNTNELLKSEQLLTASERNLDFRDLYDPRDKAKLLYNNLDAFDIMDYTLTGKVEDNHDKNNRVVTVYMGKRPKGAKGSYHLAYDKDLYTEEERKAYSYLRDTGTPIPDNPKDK", "assay": "viability-normalized secreted streptokinase activity reduction – plasminogen activation absorbance, OD405, dose response (AID 1914)", "assay_type": "functional, Streptococcus pyogenes M1 GAS"}, "[13]": {"test_system": "Streptococcus", "assay": "GAS UMAA2166 growth inhibition – luminescence, BacTiterGlo, counter-screen for streptokinase expression inhibitor project, dose response (AID 1915);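 also: potency for reduction of bacterial viability or growth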", "assay_type": "functional, organism-based"}}, "note": "The source made the active and inactive calls.", "data": [{"smiles": "C=CCNc1ccc(N2C(=O)C3CCC(C)CC3C2=O)cc1[N+](=O)[O-]", "note": "(stereo not given)", "values": [{"measurement": "IC50", "setting": "[1]", "result": "4.48 µM (not active)"}]}, {"smiles": "Oc1ccc(-c2csc(Nc3ccccn3)n2)cc1", "values": [{"measurement": "IC50", "setting": "[2]", "result": "65.8 µM (active)"}]}, {"smiles": "O=c1cc(-c2ccccc2)cc(-c2ccccc2)n1O", "values": [{"measurement": "AC50", "setting": "[3]", "result": "1.13 µM (active)"}]}, {"smiles": "Cc1cccc(-c2noc(CN(C(=O)/C=C/c3ccccc3Cl)C(C)C)n2)c1", "values": [{"measurement": "IC50", "setting": "[1]", "result": "13.3 µM (not active)"}]}, {"smiles": "NS(=O)(=O)c1cccc(NC(=O)CN2CCC(Cc3ccccc3)CC2)c1", "values": [{"measurement": "IC50", "setting": "[1]", "result": "25.9 µM (not active)"}]}, {"smiles": "Cc1ccnc(NC(=O)c2ccc([N+](=O)[O-])s2)c1", "values": [{"measurement": "EC50", "setting": "[4]", "result": "0.743 µM (active)"}, {"measurement": "EC50", "setting": "[5]", "result": "> 60 µM (not active)"}, {"measurement": "AC50", "setting": "[6]", "result": "6.55 µM (active)"}]}, {"smiles": "COC(=O)c1ccc(NC2(C#N)C(=O)Nc3ccccc32)cc1", "note": "(stereo not given)", "values": [{"measurement": "IC50", "setting": "[1]", "result": "> 50 µM (not active)"}]}, {"smiles": "O=C(CNC1CCCCCC1)Nc1ccccc1N1CCOCC1", "values": [{"measurement": "IC50", "setting": "[2]", "result": "177 µM (active)"}]}, {"smiles": "COC(C(=O)N/N=C(\\C)CC(=O)Nc1ccc(N(C)C)cc1)c1ccccc1", "note": "(stereo not given)", "values": [{"measurement": "IC50", "setting": "[7]", "result": "11.1 µM (active)"}, {"measurement": "IC50", "setting": "[2]", "result": "50.3 µM (active)"}]}, {"smiles": "COc1cc(/C=N/NC(=O)CCc2ccccc2)ccc1O", "values": [{"measurement": "IC50", "setting": "[2]", "result": "28.7 µM (active)"}]}, {"smiles": "O=C(N/N=C/c1cc([N+](=O)[O-])ccc1O)c1cccc(NC(=O)c2cccc(Cl)c2)c1", "values": [{"measurement": "EC50", "setting": "[8]", "result": "12.7 µM (active)"}, {"measurement": "EC50", "setting": "[9]", "result": "5.18 µM (active)"}, {"measurement": "EC50", "setting": "[10]", "result": "13.3 µM (active)"}, {"measurement": "EC50", "setting": "[11]", "result": "10.6 µM (active)"}, {"measurement": "EC50", "setting": "[12]", "result": "> 150 µM (not active)"}, {"measurement": "EC50", "setting": "[13]", "result": "18.7 µM (active)"}, {"measurement": "AC50", "setting": "[6]", "result": "2.18 µM (active)"}]}]}
